Test system: 171881-019-R-J1-PDC multicell spheroid viability
Assay: Anticancer human tumor 171881-019-R-J1-PDC patient-derived invasive breast carcinoma cell line growth inhibition [IpAb]
Conditions: for IC50: curve of first compound; for viability, T/C: stronger effect = lower value
Outline: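 Combinations with ipatasertib or abemaciclib were tested on tumour spheroids holding HUVEC (25%) and MSC (15%) alongside 60% malignant cells. Top concentration was at or near clinical Cmax (10 microM if undefined), descending in half-log steps.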

[1] = second compound 0.1 µM, first compound 0.0316 µM
[2] = second compound 0.1 µM, first compound 0.1 µM
[3] = second compound 0.316 µM, first compound 0.0316 µM
[4] = second compound 0.316 µM, first compound 0.1 µM
[5] = second compound 1 µM, first compound 0.0316 µM
[6] = second compound 1 µM, first compound 0.1 µM
[7] = second compound 3.16 µM, first compound 0.0316 µM
[8] = second compound 3.16 µM, first compound 0.1 µM
[9] = second compound 10 µM, first compound 0.0316 µM
[10] = second compound 10 µM, first compound 0.1 µM
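Note: spheroids exposed to the agents for seven days before readout.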

`Cn1ncc(Cl)c1-c1cc(C(=O)NC(CN)Cc2cccc(F)c2)sc1Cl` (stereo not given) + CC(C)NCC(C(=O)N1CCN(c2ncnc3c2C(C)CC3O)CC1)c1ccc(Cl)cc1 gave an IC50 (second compound 0.1 µM) of 161 nM, an IC50 (second compound 0.316 µM) of 66.3 nM and an IC50 (second compound 1 µM) of under 31.6 nM. For the same compound, the IC50 (second compound 3.16 µM) was under 31.6 nM, the IC50 (second compound 10 µM) was under 31.6 nM and the viability, T/C [1] was 86.5%. For the same compound, the viability, T/C [2] was 67.3%, the viability, T/C (second compound 0.1 µM, first compound 0.316 µM) was 25% and the viability, T/C (second compound 0.1 µM, first compound 1 µM) was 13.1%. For the same compound, the viability, T/C (second compound 0.1 µM, first compound 3.16 µM) was 4.31%, the viability, T/C (second compound 0.1 µM, first compound 10 µM) was 0.42% and the viability, T/C [3] was 59.8%. It also gave a viability, T/C [4] of 45.3%, a viability, T/C (second compound 0.316 µM, first compound 0.316 µM) of 22.6% and a viability, T/C (second compound 0.316 µM, first compound 1 µM) of 10.6%. It also gave a viability, T/C (second compound 0.316 µM, first compound 3.16 µM) of 3.79%, a viability, T/C (second compound 0.316 µM, first compound 10 µM) of 0.18% and a viability, T/C [5] of 23.8%. For the same compound, the viability, T/C [6] was 20.8%, the viability, T/C (second compound 1 µM, first compound 0.316 µM) was 13.8% and the viability, T/C (second compound 1 µM, first compound 1 µM) was 9.71%. The viability, T/C (second compound 1 µM, first compound 3.16 µM) was 3.91%, the viability, T/C (second compound 1 µM, first compound 10 µM) was 0.14% and the viability, T/C [7] was 10.8%. The viability, T/C [8] was 10.5%, the viability, T/C (second compound 3.16 µM, first compound 0.316 µM) was 9.15% and the viability, T/C (second compound 3.16 µM, first compound 1 µM) was 7.27%. The viability, T/C (second compound 3.16 µM, first compound 3.16 µM) was 3.38%, the viability, T/C (second compound 3.16 µM, first compound 10 µM) was 0.25% and the viability, T/C [9] was 5.35%. It also gave a viability, T/C [10] of 5.51%, a viability, T/C (second compound 10 µM, first compound 0.316 µM) of 5.12% and a viability, T/C (second compound 10 µM, first compound 1 µM) of 4.62%. For the same compound, the viability, T/C (second compound 10 µM, first compound 3.16 µM) was 2.7% and the viability, T/C (second compound 10 µM, first compound 10 µM) was 0.21%.
`Cn1ncnc1[C@H]1c2n[nH]c(=O)c3cc(F)cc(c23)N[C@@H]1c1ccc(F)cc1` + CC(C)NCC(C(=O)N1CCN(c2ncnc3c2C(C)CC3O)CC1)c1ccc(Cl)cc1 gave an IC50 (second compound 0.1 µM) of over 100 nM, an IC50 (second compound 0.316 µM) of over 100 nM and an IC50 (second compound 1 µM) of under 0.316 nM. For the same compound, the IC50 (second compound 3.16 µM) was under 0.316 nM, the IC50 (second compound 10 µM) was under 0.316 nM and the viability, T/C (second compound 0.1 µM, first compound 0.000316 µM) was 102%. The viability, T/C (second compound 0.1 µM, first compound 0.001 µM) was 114%, the viability, T/C (second compound 0.1 µM, first compound 0.00316 µM) was 121% and the viability, T/C (second compound 0.1 µM, first compound 0.01 µM) was 108%. It also gave a viability, T/C [1] of 108%, a viability, T/C [2] of 101% and a viability, T/C (second compound 0.316 µM, first compound 0.000316 µM) of 74.8%. It also gave a viability, T/C (second compound 0.316 µM, first compound 0.001 µM) of 75.1%, a viability, T/C (second compound 0.316 µM, first compound 0.00316 µM) of 75.6% and a viability, T/C (second compound 0.316 µM, first compound 0.01 µM) of 72.6%. The viability, T/C [3] was 65.8%, the viability, T/C [4] was 60.8% and the viability, T/C (second compound 1 µM, first compound 0.000316 µM) was 27.4%. For the same compound, the viability, T/C (second compound 1 µM, first compound 0.001 µM) was 24.4%, the viability, T/C (second compound 1 µM, first compound 0.00316 µM) was 20.7% and the viability, T/C (second compound 1 µM, first compound 0.01 µM) was 24.6%. The viability, T/C [5] was 20.3%, the viability, T/C [6] was 17.1% and the viability, T/C (second compound 3.16 µM, first compound 0.000316 µM) was 10.7%. It also gave a viability, T/C (second compound 3.16 µM, first compound 0.001 µM) of 12.5%, a viability, T/C (second compound 3.16 µM, first compound 0.00316 µM) of 8.98% and a viability, T/C (second compound 3.16 µM, first compound 0.01 µM) of 10%. It also gave a viability, T/C [7] of 8.89%, a viability, T/C [8] of 7.64% and a viability, T/C (second compound 10 µM, first compound 0.000316 µM) of 5.76%. It also gave a viability, T/C (second compound 10 µM, first compound 0.001 µM) of 5.36%, a viability, T/C (second compound 10 µM, first compound 0.00316 µM) of 5.17% and a viability, T/C (second compound 10 µM, first compound 0.01 µM) of 5.3%. For the same compound, the viability, T/C [9] was 4.77% and the viability, T/C [10] was 4.29%.
`Cn1cnc2c(F)c(Nc3ccc(Br)cc3Cl)c(C(=O)NOCCO)cc21` + CCN1CCN(Cc2ccc(Nc3ncc(F)c(-c4cc(F)c5nc(C)n(C(C)C)c5c4)n3)nc2)CC1 gave an IC50 (second compound 0.01 µM) of 1250 nM, an IC50 (second compound 0.0316 µM) of 1130 nM and an IC50 (second compound 0.1 µM) of 1150 nM. For the same compound, the IC50 (second compound 0.316 µM) was 1400 nM, the IC50 (second compound 1 µM) was 1320 nM and the viability, T/C (second compound 0.01 µM, first compound 0.00949 µM) was 97.1%. It also gave a viability, T/C (second compound 0.01 µM, first compound 0.03 µM) of 114%, a viability, T/C (second compound 0.01 µM, first compound 0.0949 µM) of 112% and a viability, T/C (second compound 0.01 µM, first compound 0.3 µM) of 114%. For the same compound, the viability, T/C (second compound 0.01 µM, first compound 0.949 µM) was 61.3%, the viability, T/C (second compound 0.01 µM, first compound 3 µM) was 13.9% and the viability, T/C (second compound 0.0316 µM, first compound 0.00949 µM) was 121%. The viability, T/C (second compound 0.0316 µM, first compound 0.03 µM) was 120%, the viability, T/C (second compound 0.0316 µM, first compound 0.0949 µM) was 130% and the viability, T/C (second compound 0.0316 µM, first compound 0.3 µM) was 109%. The viability, T/C (second compound 0.0316 µM, first compound 0.949 µM) was 56.8%, the viability, T/C (second compound 0.0316 µM, first compound 3 µM) was 14.6% and the viability, T/C (second compound 0.1 µM, first compound 0.00949 µM) was 112%. For the same compound, the viability, T/C (second compound 0.1 µM, first compound 0.03 µM) was 138%, the viability, T/C (second compound 0.1 µM, first compound 0.0949 µM) was 126% and the viability, T/C (second compound 0.1 µM, first compound 0.3 µM) was 99.7%. For the same compound, the viability, T/C (second compound 0.1 µM, first compound 0.949 µM) was 58.3%, the viability, T/C (second compound 0.1 µM, first compound 3 µM) was 15.9% and the viability, T/C (second compound 0.316 µM, first compound 0.00949 µM) was 142%. For the same compound, the viability, T/C (second compound 0.316 µM, first compound 0.03 µM) was 142%, the viability, T/C (second compound 0.316 µM, first compound 0.0949 µM) was 136% and the viability, T/C (second compound 0.316 µM, first compound 0.3 µM) was 116%. For the same compound, the viability, T/C (second compound 0.316 µM, first compound 0.949 µM) was 63.4%, the viability, T/C (second compound 0.316 µM, first compound 3 µM) was 23.4% and the viability, T/C (second compound 1 µM, first compound 0.00949 µM) was 149%. For the same compound, the viability, T/C (second compound 1 µM, first compound 0.03 µM) was 142%, the viability, T/C (second compound 1 µM, first compound 0.0949 µM) was 138% and the viability, T/C (second compound 1 µM, first compound 0.3 µM) was 106%. It also gave a viability, T/C (second compound 1 µM, first compound 0.949 µM) of 59.5% and a viability, T/C (second compound 1 µM, first compound 3 µM) of 25.8%.

— PubChem BioAssay AID2060342 (Molecular Pharmacology Branch, DTP, NCI, 2025)
